Data published in US10165791B2, “Use of rubusoside for reducing or suppressing certain unpleasant taste impressions” (Symrise AG, priority 2010, dated 2019).

B1: miraculin: protein that in the presence of acids transforms the sour impression into a sweet taste impression (protein, UniProt P13087 30-220, looked up)
Miraculin: DSAPNPVLDIDGEKLRTGTNYYIVPVLRDHGGGLTVSATTPNGTFVCPPRVVQTRKEVDHDRPLAFFPENPKEDVVRVSTDLNINFSAFMPCRWTSSTVWRLDKYDESTGQYFVTIGGVKGNPGPETISSWFKIEEFCGSGFYKLVFCPTVCGSCKVKCGDVGIYIDQKGRRRLALSDKPFAFEFNKTVYF

Key:
[1] = own tests: taste of rubusoside in water; assay type: in vivo, human
Procedure: It is known that extracts from Rubus suavissimus or certain compounds isolated therefrom are able to make sweet-tasting orally consumable preparations taste even sweeter, as described in WO 2008/049256. Moreover, it is known that isolated rubusoside from Rubus suavissimus tastes perceptibly sweet starting from a concentration of approx. 25 mg/kg (equivalent to 25 ppm) (taste recognition threshold). Rubusoside can be used as a sweetener (Hirono, S.; Chou, W. H.; Kasai, R.; Tanaka, O.; Tada, T., Sweet and bitter diterpene glucosides from leaves of Rubus suavissimus. Chemical & Pharmaceutical Bulletin 1990, 38, (6), 1743-1744).

[2] = Reduction of astringent and sour impression, panel of trained tasters; assay type: in vivo, human; settings: Yogurt 0.1% fat; 10 mg/kg rubusoside
Procedure: The following products, in each case without and with a flavoring composition, were assessed by a panel of trained tasters. The astringent impression and sour impression were assessed on a scale from 1 (not perceptible) to 9 (very strong) and averaged for the tasters.

[3] = isolated rubusoside from Rubus suavissimus; equivalent to 25 ppm; cited from earlier work
[4] = in the presence of acids; cited from earlier work

| Molecule | sweet taste equivalent to the sweetness of an aqueous sucrose solution ([1]; 100 mg/kg (100 ppm) in water) [%] | concentration above which a recognizably bitter taste is additionally displayed ([1]; in water) [mg/kg] | Astringent impression (0-9) b) with test substance [2] | Sour impression (0-9) b) with test substance [2] | taste recognition threshold (tastes perceptibly sweet starting from) [3] | duration of the conversion of sour impression to sweet taste [4] [h] |
| --- | --- | --- | --- | --- | --- | --- |
| C=C1C[C@@]23CC[C@H]4[C@@](C)(CCC[C@@]4(C)C(=O)O[C@@H]4O[C@H](CO)[C@@H](O)[C@H](O)[C@H]4O)[C@@H]2CC[C@]1(O[C@@H]1O[C@H](CO)[C@@H](O)[C@H](O)[C@H]1O)C3 [rubusoside, Rubusoside] | 1.4 | > 100 | 5 | 5.5 | approx. 25 mg/kg |  |
| B1 |  |  |  |  |  | 2 to 4 |
